For one assay, the system named is HIV. The assay can be described thus: TCID titre of culture supernatants of T-45 cells infected with HIV, Fig. 4. Format: cell-based. The following applies: for reduction of TCID titre of culture supernatants: T-45 cells infected with HIV, after 10 days in culture, result in words; for reduction of the virus titer / yield of infectious HIV: at non-cytotoxic concentrations. The protocol:
FIG. 4 is a graphical representation in which the viral titer (determined as TCID) is plotted against the concentration in mg/ml of various of the test compounds (drugs) of FIG. 3 in panels (a) and (b).
(§1) Cell free suspensions of the HIV were prepared from infected cultures. The concentration of infectious particles was estimated on end-point titration assay using serial ten-fold dilutions. The approximate number of infectious particles in each preparation was determined by the highest dilution which contains infectious HIV as determined by synctial formation, cytopathicity [Leonard et al., Proc. Natl. Acad. Sci. USA 85, 3570-3574 (1988); Barre-Sinoussi et al., Science 220, 868-870 (1983)] and HIV antigen [Karpas et al., Lancet 1, 695-697 (1985)] synthesis after 10 days of culture with 10^4 T-cells. This represents the concentration of infectious particles, herein defined as the tissue culture infectious dose (TCID).
(§2) The efficacy of the test compounds used in this example was assessed as follows: 0.2 ml of culture medium containing 10^4 T-45 cells were transferred into each well of a 96-well flat-bottomed tissue-culture plastic plate and the cells were allowed to settle at 37°C (see Figure 1). After 4 hours the media were aspirated and replaced with media which contained the test compound. Following overnight incubation the media was aspirated and 10^4 TCID of virus (HIV-1 or HIV-2) was added to each well. Incubation was continued at 37°C in 5% CO2 for 1 hour. Thereafter, growth media containing the various compounds were added and incubation at 37°C was continued. On the fourth day the cell suspensions from each well were split and seeded into two new wells and 0.2 ml of fresh media with compounds was added. This was repeated on the seventh day. Cells were examined by microscopy during days 1 to 10 for the presence of syncytia, growth rate and the appearance of the cytopathic effect (CPE) (giant cells, pycnotic nuclei, loss of refractility). CPE (100%) was defined as no round, refractile, uniform cells remaining; only giant, ballooned pyknotic cells were present. The viability of HIV infected cultures was determined by a rough count/estimate of cells which underwent CPE in relation to round refractile uniform (normal) cells in a given culture. Cells in wells which were incubated with compounds which appeared to inhibit or reduce HIV replication and in which there was marked cell proliferation were either transferred to larger wells (of a 24-well plate) or divided in order to maintain an approximate constant cell density to promote continuous cell division.
Quantitative data on the effect of the various compounds on the non-infected cells (cytotoxicity) was obtained by comparison of their growth rate to control cells not exposed to drugs (Table 1). Fig. 4 and Table 2 show the relation between the TCID titre of culture supernatants of T-45 cells infected with HIV after 10 days in culture and the concentration of drug. […] The inability of any of these drugs alone to totally reduce the TCID may be due to heterogeneity of virus production or spread. […] In addition, the MOLT-4 cell line was also used.

In a further assay the target is T1, glucosidase I (Bos taurus, UniProt A0A3Q1M9D9).
T1 sequence (A0A3Q1M9D9 1-839): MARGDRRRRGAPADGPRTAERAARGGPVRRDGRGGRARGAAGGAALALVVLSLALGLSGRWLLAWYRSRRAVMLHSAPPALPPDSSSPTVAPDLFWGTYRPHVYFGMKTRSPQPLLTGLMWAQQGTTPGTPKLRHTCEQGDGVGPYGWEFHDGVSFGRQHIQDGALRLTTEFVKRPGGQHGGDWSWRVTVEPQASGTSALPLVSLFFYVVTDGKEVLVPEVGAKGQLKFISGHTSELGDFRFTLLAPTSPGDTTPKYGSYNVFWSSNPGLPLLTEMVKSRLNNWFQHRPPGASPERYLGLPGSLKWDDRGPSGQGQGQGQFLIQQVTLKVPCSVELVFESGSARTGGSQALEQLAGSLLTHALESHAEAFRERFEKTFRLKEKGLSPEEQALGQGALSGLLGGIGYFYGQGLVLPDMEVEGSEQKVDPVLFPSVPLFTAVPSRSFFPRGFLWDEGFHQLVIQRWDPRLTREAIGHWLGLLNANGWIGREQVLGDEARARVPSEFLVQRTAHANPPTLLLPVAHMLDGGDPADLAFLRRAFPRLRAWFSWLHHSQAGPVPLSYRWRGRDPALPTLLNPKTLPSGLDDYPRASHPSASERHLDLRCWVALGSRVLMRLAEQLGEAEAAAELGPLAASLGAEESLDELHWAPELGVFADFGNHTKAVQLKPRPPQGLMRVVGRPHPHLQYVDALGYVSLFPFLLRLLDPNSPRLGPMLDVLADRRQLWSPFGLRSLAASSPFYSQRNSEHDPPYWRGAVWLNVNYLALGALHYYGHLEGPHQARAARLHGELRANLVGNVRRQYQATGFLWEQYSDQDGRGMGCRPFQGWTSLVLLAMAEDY
The following applies: reported by Schweden et al., Arch. Biochem. Biophys. 248(1), 335-340 (1986); cited from earlier work.

Another assay has as its system HIV-1. The assay can be described thus: Virus titer (TCID) of HIV-1 infected T-cell cultures grown with test compound. To be noted: control 10^6; for HIV-1 (TCID): Table 2, 0.10 mg/ml, 10^4 T-45 or MOLT-4 cells (identical results), 10^4 TCID inoculum, after day 10; for VIRUS TITER HIV-1: Table 3, Example 2, 0.1 mg/ml, T-45 and MOLT-4 cells, 10^4 TCID on 10^4 cells. The class given is cell-based. The method, then: as §1
The assay was run in 96 well plastic microtiter plates in which 0.2 ml of culture medium containing 10^4 T-cells are seeded into each well. RPMI-1640 supplemented with 10% fetal calf serum was used as the culture medium. In each assay, 6 wells are used. Three (1-3) are infected with 10^4 TCID/well of HIV-1 or HIV-2 and to the other three (4-6) culture medium alone is added. Medium is changed at the same intervals for each test compound. The detailed assay procedure is illustrated in Figures 1 and 2.
as §2
That is, HIV-1 was first passaged in T-45 cells; likewise, HIV-1 was first passaged in MOLT-4 cells. The same passaging was done with HIV-2. The test compounds were used at a concentration of 0.1 mg/ml. 10^4 TCID of HIV-1 and separately of HIV-2 were used to infect 10^4 cells. Upon completion of the test, the virus titers were as follows: TABLE 3

Setting [1] is: replicate tests (Tables 2 and 3), two virus strains, two cell lines.

With `CCCCN1C[C@H](O)[C@@H](O)[C@H](O)[C@H]1CO` [BuDNJ, N-n-butyl-deoxynojirimycin], in the assay on HIV, the “reduction of TCID titre of culture supernatants” value is given as “negligible virus TCID titres” and the “reduction of the virus titer / yield of infectious HIV” value was “over five logs”. In the assay with HIV (setting [1]), the “effectiveness as an inhibitor of HIV compared with N-ethyl deoxynojirimycin” value is recorded as “three log orders more effective” and the “effectiveness as an inhibitor of HIV compared with N-methyl-deoxynojirimycin” value is “two log orders more effective”. Further, at glucosidase I, the “glucosidase I inhibitory activity” value is on record as “virtually identical”. Moreover, in the assay on HIV-1, the “HIV-1 (TCID)” value is given as under 10 TCID and the “VIRUS TITER HIV-1” value was 10.

In the case of `CN1C[C@H](O)[C@@H](O)[C@H](O)[C@H]1CO` [MeDNJ, N-methyl-deoxynojirimycin], in the assay on HIV, the “reduction of TCID titre of culture supernatants” value is “reduced the TCID only partially” and the “reduction of the virus titer / yield of infectious HIV” value was “two to four log-order of reduction”. For the same compound, the “glucosidase I inhibitory activity” value at glucosidase I is given as “virtually identical”. Besides, in the assay on HIV-1, the “HIV-1 (TCID)” value was 10^2 TCID and the “VIRUS TITER HIV-1” value is on record as 10^2.

(Values after EP0324328B1, “Use of the N-n-butyl derivative of desoxynojirimycin in the manufacture of a medicament inhibiting HIV-Virus” (priority 1987, dated 1989).)
